Values after ≈ are worked out from the molar mass of the structure shown.
Assays:
Type in all cases: functional
Details in all cases: read-out: ED50 (the source's name)
[1] = system: A549; experiment: Cytotoxicity against human A549 cells by SRB method
[2] = system: SK-OV-3; experiment: Cytotoxicity against human SKOV3 cells by SRB method
[3] = system: SK-MEL-2; experiment: Cytotoxicity against human SK-MEL-2 cells by SRB method
[4] = system: XF498; experiment: Cytotoxicity against human XF498 cells by SRB method
[5] = system: HCT-15; experiment: Cytotoxicity against human HCT15 cells by SRB method

**Q.** C=C[C@@](C)(CC[C@H]1C(C)=CC[C@H]2C(C)(C)CCC[C@]12C)O[C@@H]1O[C@H](C)[C@H](OC(C)=O)[C@H](O)[C@H]1O was tested. Which EC50 [1] did it give?
**A.** The EC50 was 3.9 µg/mL (≈ 8.15 µM).

**Q.** And the EC50 [2]?
**A.** Its EC50 is 5.8 µg/mL (≈ 12.1 µM).

**Q.** And the EC50 [3]?
**A.** Its EC50 is 3.4 µg/mL (≈ 7.1 µM).

**Q.** What about the EC50 [4] of the same molecule?
**A.** The EC50 was 8.9 µg/mL (≈ 18.6 µM).

**Q.** And the EC50 [5]?
**A.** Its EC50 is 4.1 µg/mL (≈ 8.57 µM).

**Q.** Which EC50 [1] does the source give for C=C[C@@](C)(CC[C@H]1C(C)=CC[C@H]2C(C)(C)CCC[C@]12C)O[C@@H]1O[C@@H](C)[C@@H](OC(C)=O)[C@H](O)[C@H]1O here?
**A.** Its EC50 is 3.2 µg/mL (≈ 6.69 µM).

**Q.** What about the EC50 [2] of the same molecule?
**A.** The EC50 was 3.4 µg/mL (≈ 7.1 µM).

**Q.** And the EC50 [3]?
**A.** Its EC50 is 3.5 µg/mL (≈ 7.31 µM).

**Q.** And the EC50 [4]?
**A.** The EC50 was 3.8 µg/mL (≈ 7.94 µM).

**Q.** What about the EC50 [5] of the same molecule?
**A.** Its EC50 is 3.1 µg/mL (≈ 6.48 µM).

**Q.** Which results are given for C=C[C@@](C)(O)CC[C@@H]1[C@@]2(C)CCCC(C)(C)[C@@H]2CC[C@@]1(C)O?
**A.** EC50 [1]: > 5 µg/mL; EC50 [2]: > 5 µg/mL; EC50 [3]: > 5 µg/mL; EC50 [4]: > 5 µg/mL; EC50 [5]: > 5 µg/mL

**Q.** C=C[C@@](C)(CC[C@H]1C(C)=CC[C@H]2C(C)(C)CCC[C@]12C)O[C@@H]1O[C@@H](C)[C@@H](O)[C@H](O)[C@H]1O was tested. Which EC50 [1] did it give?
**A.** Its EC50 is 3.9 µg/mL (≈ 8.93 µM).

**Q.** And the EC50 [2]?
**A.** The EC50 was 5.7 µg/mL (≈ 13.1 µM).

**Q.** And the EC50 [3]?
**A.** Its EC50 is 4.2 µg/mL (≈ 9.62 µM).

**Q.** And the EC50 [4]?
**A.** Its EC50 is 8.9 µg/mL (≈ 20.4 µM).

**Q.** What about the EC50 [5] of the same molecule?
**A.** The EC50 was 3.2 µg/mL (≈ 7.33 µM).

**Q.** For C=C[C@](C)(O)CC[C@H]1C(C)=CC[C@H]2C(C)(C)CCC[C@]12C, which EC50 [1] is on record?
**A.** Its EC50 is 2.4 µg/mL (≈ 8.26 µM).

**Q.** And the EC50 [2]?
**A.** The EC50 was 8.7 µg/mL (≈ 29.9 µM).

**Q.** And the EC50 [3]?
**A.** The EC50 was 4.4 µg/mL (≈ 15.1 µM).

**Q.** What about the EC50 [4] of the same molecule?
**A.** Its EC50 is 9.5 µg/mL (≈ 32.7 µM).

**Q.** And the EC50 [5]?
**A.** Its EC50 is 9.1 µg/mL (≈ 31.3 µM).

**Q.** How did the EC50 [1] turn out when COc1cccc2c1C(=O)c1c(O)c3c(c(O)c1C2=O)C[C@@](O)(C(=O)CO)C[C@@H]3O[C@H]1C[C@H](N)[C@H](O)[C@H](C)O1 [DOXORUBICIN] was run?
**A.** The EC50 was 0.012 µg/mL (≈ 0.0221 µM).

**Q.** And the EC50 [2]?
**A.** The EC50 was 0.12 µg/mL (≈ 0.221 µM).

**Q.** What about the EC50 [3] of the same molecule?
**A.** Its EC50 is 0.003 µg/mL (≈ 0.00552 µM).

**Q.** And the EC50 [4]?
**A.** Its EC50 is 0.01 µg/mL (≈ 0.0184 µM).

**Q.** What about the EC50 [5] of the same molecule?
**A.** Its EC50 is 0.35 µg/mL (≈ 0.644 µM).

**Q.** Which results are given for C=C[C@@](C)(CC[C@H]1C(C)=CC[C@H]2C(C)(C)CCC[C@]12C)O[C@@H]1O[C@H](C)[C@H](O)[C@H](OC(C)=O)[C@H]1O?
**A.** EC50 [1]: 3.6 µg/mL (≈ 7.52 µM); EC50 [2]: 3.8 µg/mL (≈ 7.94 µM); EC50 [3]: 3.5 µg/mL (≈ 7.31 µM); EC50 [4]: 5.1 µg/mL (≈ 10.7 µM); EC50 [5]: 3.8 µg/mL (≈ 7.94 µM)

**Q.** How did the EC50 [1] turn out when C=C[C@@](C)(CC[C@@H]1[C@@]2(C)CCCC(C)(C)[C@@H]2CC[C@@]1(C)O)O[C@H]1O[C@H](C)[C@H](O)[C@@H](O)[C@@H]1O was run?
**A.** The EC50 was greater than 5 µg/mL.

**Q.** And the EC50 [2]?
**A.** The EC50 was greater than 5 µg/mL.

**Q.** And the EC50 [3]?
**A.** The EC50 was greater than 5 µg/mL.

**Q.** And the EC50 [4]?
**A.** Its EC50 is greater than 5 µg/mL.

**Q.** What about the EC50 [5] of the same molecule?
**A.** Its EC50 is greater than 5 µg/mL.

**Q.** With C=C[C@@]1(C)CC[C@H]2[C@]3(C)CCC[C@@](C)(C(=O)O)[C@H]3CC[C@]2(C)O1 as the molecule, how does the EC50 [1] read?
**A.** Its EC50 is greater than 5 µg/mL.

**Q.** And the EC50 [2]?
**A.** Its EC50 is greater than 5 µg/mL.

**Q.** What about the EC50 [3] of the same molecule?
**A.** The EC50 was greater than 5 µg/mL.

**Q.** And the EC50 [4]?
**A.** The EC50 was greater than 5 µg/mL.

**Q.** What about the EC50 [5] of the same molecule?
**A.** The EC50 was greater than 5 µg/mL.

**Q.** C=C[C@@](C)(CC[C@H]1C(C)=CC[C@H]2C(C)(C)CCC[C@]12C)O[C@@H]1O[C@H](C)[C@H](O)[C@H](O)[C@H]1O was tested. Which EC50 [1] did it give?
**A.** Its EC50 is 3.5 µg/mL (≈ 8.02 µM).

**Q.** What about the EC50 [2] of the same molecule?
**A.** The EC50 was 3.6 µg/mL (≈ 8.24 µM).

**Q.** What about the EC50 [3] of the same molecule?
**A.** Its EC50 is 3.5 µg/mL (≈ 8.02 µM).

**Q.** And the EC50 [4]?
**A.** Its EC50 is 4.2 µg/mL (≈ 9.62 µM).

**Q.** And the EC50 [5]?
**A.** Its EC50 is 3.9 µg/mL (≈ 8.93 µM).

**Q.** With COc1cc([C@@H]2c3cc4c(cc3[C@@H](O[C@@H]3O[C@@H]5CO[C@@H](C)O[C@H]5[C@H](O)[C@H]3O)[C@H]3COC(=O)[C@H]23)OCO4)cc(OC)c1O [ETOPOSIDE] as the molecule, how does the EC50 [1] read?
**A.** Its EC50 is 1.5 µg/mL (≈ 2.55 µM).

**Q.** What about the EC50 [2] of the same molecule?
**A.** Its EC50 is 2.7 µg/mL (≈ 4.59 µM).

**Q.** And the EC50 [3]?
**A.** Its EC50 is 0.08 µg/mL (≈ 0.136 µM).

**Q.** And the EC50 [4]?
**A.** The EC50 was 2.6 µg/mL (≈ 4.42 µM).

**Q.** What about the EC50 [5] of the same molecule?
**A.** Its EC50 is 2.2 µg/mL (≈ 3.74 µM).

**Q.** For C=C[C@](C)(O)CC[C@H]1C(=C)[C@H](O)C[C@H]2C(C)(C)CCC[C@]12C, which EC50 [1] is on record?
**A.** Its EC50 is greater than 5 µg/mL.

**Q.** And the EC50 [2]?
**A.** Its EC50 is greater than 5 µg/mL.

**Q.** And the EC50 [3]?
**A.** Its EC50 is greater than 5 µg/mL.

**Q.** And the EC50 [4]?
**A.** Its EC50 is greater than 5 µg/mL.

**Q.** What about the EC50 [5] of the same molecule?
**A.** Its EC50 is greater than 5 µg/mL.

**Q.** C=C[C@@](C)(CC[C@@H]1[C@@]2(C)CCCC(C)(C)[C@@H]2CC[C@@]1(C)O)O[C@@H]1O[C@H](C)[C@H](O)[C@H](O)[C@H]1O was tested. Which EC50 [1] did it give?
**A.** Its EC50 is greater than 5 µg/mL.

**Q.** And the EC50 [2]?
**A.** The EC50 was greater than 5 µg/mL.

**Q.** What about the EC50 [3] of the same molecule?
**A.** The EC50 was greater than 5 µg/mL.

**Q.** What about the EC50 [4] of the same molecule?
**A.** The EC50 was greater than 5 µg/mL.

**Q.** What about the EC50 [5] of the same molecule?
**A.** Its EC50 is greater than 5 µg/mL.

Reference: ChEMBL document CHEMBL1151262, “Labdane diterpenes from Aster spathulifolius and their cytotoxic effects on human cancer cell lines” (2005)
